In ChEMBL document CHEMBL4052759, “Discovery of DS79182026: A potent orally active hepcidin production inhibitor” (Bioorg Med Chem Lett, 2017):

Key:
[1] = molecular target: cAMP-dependent protein kinase catalytic subunit PRKX (Homo sapiens) (UniProt P51817); experiment: Inhibition of PRKX (unknown origin) at 0.49 uM relative to control
[2] = tested on: Fibroblast growth factor receptor 2 (Homo sapiens), P21802 [N549H]; experiment: Inhibition of FGFR2 N549H mutant (unknown origin) at 0.49 uM
[3] = molecular target: Tyrosine-protein kinase receptor UFO (Homo sapiens) (UniProt P30530); experiment: Inhibition of AXL (unknown origin) at 0.49 uM relative to control
[4] = molecular target: T1, Interleukin-1 receptor-associated kinase 4 (Homo sapiens) (UniProt Q9NWZ3); experiment: Inhibition of IRAK4 (unknown origin) at 0.49 uM relative to control
T1 sequence (whole entry): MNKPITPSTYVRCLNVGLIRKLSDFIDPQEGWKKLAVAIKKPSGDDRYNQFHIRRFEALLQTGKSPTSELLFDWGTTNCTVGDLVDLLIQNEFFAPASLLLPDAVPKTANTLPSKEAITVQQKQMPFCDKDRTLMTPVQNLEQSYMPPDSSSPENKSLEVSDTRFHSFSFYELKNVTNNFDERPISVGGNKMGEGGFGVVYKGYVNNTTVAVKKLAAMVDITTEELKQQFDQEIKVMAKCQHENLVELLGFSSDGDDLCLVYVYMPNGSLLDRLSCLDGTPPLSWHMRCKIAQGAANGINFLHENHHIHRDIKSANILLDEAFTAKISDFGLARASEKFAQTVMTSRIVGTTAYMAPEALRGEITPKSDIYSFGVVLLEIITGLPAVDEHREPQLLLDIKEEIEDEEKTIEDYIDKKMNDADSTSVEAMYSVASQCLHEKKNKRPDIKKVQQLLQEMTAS

[5] = molecular target: Tyrosine-protein kinase Fes/Fps (Homo sapiens) (UniProt P07332); experiment: Inhibition of FES (unknown origin) at 0.45 uM relative to control
Chain of Tyrosine-protein kinase Fes/Fps (Homo sapiens) (P07332 whole entry): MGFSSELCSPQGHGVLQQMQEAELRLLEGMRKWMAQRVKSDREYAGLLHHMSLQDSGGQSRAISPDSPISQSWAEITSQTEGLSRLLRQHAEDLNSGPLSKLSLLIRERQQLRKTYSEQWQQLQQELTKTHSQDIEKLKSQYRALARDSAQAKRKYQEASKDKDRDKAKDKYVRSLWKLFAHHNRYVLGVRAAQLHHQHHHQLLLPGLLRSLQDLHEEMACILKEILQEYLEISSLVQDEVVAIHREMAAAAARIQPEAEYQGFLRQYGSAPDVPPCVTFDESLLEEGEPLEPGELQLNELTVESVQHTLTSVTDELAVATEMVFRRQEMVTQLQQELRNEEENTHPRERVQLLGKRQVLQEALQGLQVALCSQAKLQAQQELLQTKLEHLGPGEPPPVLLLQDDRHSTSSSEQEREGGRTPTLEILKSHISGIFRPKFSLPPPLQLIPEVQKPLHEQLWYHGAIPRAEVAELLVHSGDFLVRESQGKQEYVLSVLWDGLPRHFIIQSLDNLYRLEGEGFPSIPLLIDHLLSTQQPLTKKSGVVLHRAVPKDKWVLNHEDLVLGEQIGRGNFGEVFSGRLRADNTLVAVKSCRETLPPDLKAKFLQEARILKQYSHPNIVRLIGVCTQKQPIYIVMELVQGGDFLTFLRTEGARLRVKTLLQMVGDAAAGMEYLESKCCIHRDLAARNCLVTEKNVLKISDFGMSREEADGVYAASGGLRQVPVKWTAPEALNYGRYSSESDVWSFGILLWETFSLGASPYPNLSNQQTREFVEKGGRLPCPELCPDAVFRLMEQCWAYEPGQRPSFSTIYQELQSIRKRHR

Chain of Tyrosine-protein kinase receptor UFO (Homo sapiens) (P30530 whole entry): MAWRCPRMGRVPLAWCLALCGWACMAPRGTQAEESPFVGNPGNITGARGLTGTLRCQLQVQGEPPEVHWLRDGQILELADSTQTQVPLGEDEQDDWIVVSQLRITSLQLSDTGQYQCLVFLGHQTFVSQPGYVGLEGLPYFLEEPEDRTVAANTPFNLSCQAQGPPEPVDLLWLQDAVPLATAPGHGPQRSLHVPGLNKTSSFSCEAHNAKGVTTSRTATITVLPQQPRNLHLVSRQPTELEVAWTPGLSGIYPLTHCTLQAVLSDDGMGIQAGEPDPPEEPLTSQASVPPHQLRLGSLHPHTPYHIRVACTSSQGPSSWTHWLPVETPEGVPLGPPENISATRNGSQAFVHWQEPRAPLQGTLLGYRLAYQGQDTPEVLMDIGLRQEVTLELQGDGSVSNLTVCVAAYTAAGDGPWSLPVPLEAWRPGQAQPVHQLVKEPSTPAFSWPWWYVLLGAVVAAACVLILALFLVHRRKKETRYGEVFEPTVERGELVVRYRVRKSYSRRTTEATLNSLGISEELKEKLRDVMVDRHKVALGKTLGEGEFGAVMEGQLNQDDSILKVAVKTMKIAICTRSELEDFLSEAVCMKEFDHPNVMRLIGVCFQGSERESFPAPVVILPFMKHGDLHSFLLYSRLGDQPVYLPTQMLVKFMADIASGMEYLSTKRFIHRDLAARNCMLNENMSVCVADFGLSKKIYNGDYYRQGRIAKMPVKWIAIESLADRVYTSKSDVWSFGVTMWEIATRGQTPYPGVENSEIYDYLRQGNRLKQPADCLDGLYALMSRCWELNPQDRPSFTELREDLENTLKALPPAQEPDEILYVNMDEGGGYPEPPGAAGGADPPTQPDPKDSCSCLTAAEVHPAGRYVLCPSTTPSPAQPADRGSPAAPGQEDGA
Chain of cAMP-dependent protein kinase catalytic subunit PRKX (Homo sapiens) (P51817 whole entry): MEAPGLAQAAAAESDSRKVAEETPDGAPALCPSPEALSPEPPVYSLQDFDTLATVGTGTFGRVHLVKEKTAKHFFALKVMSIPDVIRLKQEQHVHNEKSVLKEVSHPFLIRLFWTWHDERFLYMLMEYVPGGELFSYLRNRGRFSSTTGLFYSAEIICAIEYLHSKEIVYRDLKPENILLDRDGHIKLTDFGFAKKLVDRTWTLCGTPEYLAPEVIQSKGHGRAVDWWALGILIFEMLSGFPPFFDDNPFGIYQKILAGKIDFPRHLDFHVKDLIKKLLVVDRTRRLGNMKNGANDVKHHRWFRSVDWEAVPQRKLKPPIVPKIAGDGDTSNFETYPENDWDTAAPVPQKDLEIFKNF
Chain of Fibroblast growth factor receptor 2 (Homo sapiens), P21802 [N549H] (P21802 whole entry N549H): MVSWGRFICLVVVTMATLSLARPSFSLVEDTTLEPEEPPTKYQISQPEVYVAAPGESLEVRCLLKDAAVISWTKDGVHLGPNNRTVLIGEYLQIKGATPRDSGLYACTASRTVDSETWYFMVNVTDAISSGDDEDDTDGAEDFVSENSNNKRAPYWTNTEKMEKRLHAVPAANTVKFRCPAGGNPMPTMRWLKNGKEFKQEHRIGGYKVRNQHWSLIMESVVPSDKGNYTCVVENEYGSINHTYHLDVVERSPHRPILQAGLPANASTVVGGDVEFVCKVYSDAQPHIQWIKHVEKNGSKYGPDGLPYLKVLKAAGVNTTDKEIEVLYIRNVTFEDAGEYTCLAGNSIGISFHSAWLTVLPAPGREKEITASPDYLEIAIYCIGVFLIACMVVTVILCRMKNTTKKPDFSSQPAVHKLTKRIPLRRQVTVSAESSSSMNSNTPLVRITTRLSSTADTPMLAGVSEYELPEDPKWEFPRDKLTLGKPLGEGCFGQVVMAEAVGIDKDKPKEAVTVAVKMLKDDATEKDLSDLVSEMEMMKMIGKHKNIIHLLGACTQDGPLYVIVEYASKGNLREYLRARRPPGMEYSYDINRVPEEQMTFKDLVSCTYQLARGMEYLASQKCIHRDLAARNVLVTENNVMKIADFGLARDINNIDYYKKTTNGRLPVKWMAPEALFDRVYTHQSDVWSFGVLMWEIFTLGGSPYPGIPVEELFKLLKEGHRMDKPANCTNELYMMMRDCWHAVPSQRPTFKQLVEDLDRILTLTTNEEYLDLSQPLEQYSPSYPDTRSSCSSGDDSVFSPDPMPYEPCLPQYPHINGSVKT

Row | Structure (SMILES) | inhibition [1] | inhibition [2] | inhibition [3] | inhibition [4] | inhibition [5]
1 | Cc1[nH]nc(C2CC2)c1-c1ccc2c(NC(=O)C3CC3)noc2c1 | -1.7% | 0% | -0.3% | 2% | 
2 | Cc1n[nH]c(C)c1-c1ccc2c(NC(=O)c3ccc(N4CCN(C)CC4)cc3)n[nH]c2c1 |  |  |  |  | -3.3%
